Data taken from paper PMC4142842, “Synthesis of isoprenoid bisphosphonate ethers through C–P bond formations: Potential inhibitors of geranylgeranyl diphosphate synthase” (Beilstein Journal of Organic Chemistry, 2014).
Like-named read-outs stand apart in the source and are kept apart here.

Columns and labels:
[1] = target: T1, geranylgeranyl diphosphate synthase (GGDPS) (Homo sapiens, UniProt O95749); assay: GGDPS enzyme assay (14C-IPP incorporation, FPP substrate); format: biochemical; conditions: for IC50 / activity against GGDPS (in words): enzyme assay; for IC50: 10 µM FPP, 10 min preincubation
T1 construct: gift of Dr. James E. Dunford (not a commercial vendor)
T1 sequence (O95749 1-300): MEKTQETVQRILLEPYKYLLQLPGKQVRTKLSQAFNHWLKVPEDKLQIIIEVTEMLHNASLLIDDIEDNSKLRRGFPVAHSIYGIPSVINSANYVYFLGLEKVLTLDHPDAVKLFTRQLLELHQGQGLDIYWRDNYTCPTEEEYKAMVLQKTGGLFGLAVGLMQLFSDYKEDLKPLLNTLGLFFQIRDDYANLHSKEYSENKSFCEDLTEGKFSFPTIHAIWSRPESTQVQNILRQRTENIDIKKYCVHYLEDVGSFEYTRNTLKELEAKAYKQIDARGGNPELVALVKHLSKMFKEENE

[2] = target: T2, farnesyl diphosphate synthase (FDPS) (Homo sapiens, UniProt P14324); assay: FDPS enzyme assay (14C-IPP incorporation, GPP substrate); format: biochemical; conditions: for IC50: 10 µM GPP, 10 min preincubation
T2 construct: gift of Dr. James E. Dunford (not a commercial vendor)
T2 sequence (P14324 1-419): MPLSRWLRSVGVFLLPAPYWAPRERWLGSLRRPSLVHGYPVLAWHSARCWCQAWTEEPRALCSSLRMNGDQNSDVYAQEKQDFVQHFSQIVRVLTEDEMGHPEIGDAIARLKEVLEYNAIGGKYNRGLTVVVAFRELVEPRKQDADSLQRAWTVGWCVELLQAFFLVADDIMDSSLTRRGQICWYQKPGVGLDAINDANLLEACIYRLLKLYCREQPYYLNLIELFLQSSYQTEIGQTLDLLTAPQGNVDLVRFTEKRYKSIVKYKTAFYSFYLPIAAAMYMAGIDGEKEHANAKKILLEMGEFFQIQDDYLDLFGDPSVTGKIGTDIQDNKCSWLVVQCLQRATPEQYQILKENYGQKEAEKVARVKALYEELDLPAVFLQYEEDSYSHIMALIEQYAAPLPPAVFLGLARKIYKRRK

[3] = target: T1, geranylgeranyl diphosphate synthase (GGDPS); conditions: previously reported limited activity; cited from earlier work
[4] = target: T2, farnesyl diphosphate synthase (FDPS); parameters: method as in PMID 17208200; conditions: earlier enzyme assays; cited from earlier work
K562 cells = tested on: K562 cells; parameters: method as in PMID 16517172; conditions: micromolar DGBP; cited from earlier work

Structure (SMILES) | IC50 [1] | IC50 [2] | activity against FDPS (in words) [2] | also measured
CC(C)=CCC/C(C)=C/COC(P(=O)(O)O)P(=O)(O)O [Compound 11] | 238 nM | > 10000 nM |  | 
CC(C)=CCC/C(C)=C/COC(CC=C(C)C)(P(=O)(O)O)P(=O)(O)O [Compound 20] | 274 nM | > 10000 nM |  | 
CC(C)=CCCC(C)=CCC(P(=O)(O)O)P(=O)(O)O [geranyl bisphosphonate] |  |  |  | activity previously reported (GGDPS inhibition) [3]: 10 µM
CC(C)=CCC/C(C)=C/CC(OCC[C@@H](C)CCC=C(C)C)(P(=O)([O-])[O-])P(=O)([O-])[O-].[Na+].[Na+].[Na+].[Na+] [Compound 24] | 82 nM | > 10000 nM | no activity | fold more potent than the DGBP control (5), GGDPS ([1]; ratio of GGDPS IC50 values): ~ 2.6 fold
CC(C)=CCC/C(C)=C/CC(C/C=C(\C)CCC=C(C)C)(P(=O)(O)O)P(=O)(O)O [Compound 5, digeranyl bisphosphonate] |  | > 10000 nM |  | IC50 [4]: > 10000 nM; Rap1a geranylgeranylation (Western blot) (K562 cells): only partially modified
CC(C)=CCOC(CC=C(C)C)(P(=O)(O)O)P(=O)(O)O [Compound 18] | 4750 nM | 5260 nM | little or no activity | activity against GGDPS (in words) [1]: little or no activity
CC(C)=CCOC(P(=O)(O)O)P(=O)(O)O [Compound 14] |  |  | little or no activity | activity against GGDPS (in words) [1]: little or no activity
CC(C)=CCC/C(C)=C/COC(C/C=C(\C)CCC=C(C)C)(P(=O)(O)O)P(=O)(O)O [Compound 6] | 408 nM | > 10000 nM |  | 
CC(C)=CCC/C(C)=C/CC(OCC=C(C)C)(P(=O)(O)O)P(=O)(O)O [Compound 16] | 684 nM | 830 nM |  | 
